Laboratory results from ChEMBL document CHEMBL1629525, “Synthesis and characterization of 1,3-dihydro-benzo[b][1,4]diazepin-2-one derivatives: Part 4. In vivo active potent and selective non-competitive metabotropic glutamate receptor 2/3 antagonists” (Bioorg Med Chem Lett, 2010).
pIC50: −log10 of the molar value. ≈ marks a conversion by molar mass, not a printed value. Calls of active or inactive are those of the source. No cut-off for these calls is given here.

How the values were obtained:
[1] = biological target: T1, Metabotropic glutamate receptor 2 (Rattus norvegicus, UniProt P31421); experiment: Partial displacement of [3H]LY354740 from recombinant rat mGluR2
T1 sequence (P31421 whole entry): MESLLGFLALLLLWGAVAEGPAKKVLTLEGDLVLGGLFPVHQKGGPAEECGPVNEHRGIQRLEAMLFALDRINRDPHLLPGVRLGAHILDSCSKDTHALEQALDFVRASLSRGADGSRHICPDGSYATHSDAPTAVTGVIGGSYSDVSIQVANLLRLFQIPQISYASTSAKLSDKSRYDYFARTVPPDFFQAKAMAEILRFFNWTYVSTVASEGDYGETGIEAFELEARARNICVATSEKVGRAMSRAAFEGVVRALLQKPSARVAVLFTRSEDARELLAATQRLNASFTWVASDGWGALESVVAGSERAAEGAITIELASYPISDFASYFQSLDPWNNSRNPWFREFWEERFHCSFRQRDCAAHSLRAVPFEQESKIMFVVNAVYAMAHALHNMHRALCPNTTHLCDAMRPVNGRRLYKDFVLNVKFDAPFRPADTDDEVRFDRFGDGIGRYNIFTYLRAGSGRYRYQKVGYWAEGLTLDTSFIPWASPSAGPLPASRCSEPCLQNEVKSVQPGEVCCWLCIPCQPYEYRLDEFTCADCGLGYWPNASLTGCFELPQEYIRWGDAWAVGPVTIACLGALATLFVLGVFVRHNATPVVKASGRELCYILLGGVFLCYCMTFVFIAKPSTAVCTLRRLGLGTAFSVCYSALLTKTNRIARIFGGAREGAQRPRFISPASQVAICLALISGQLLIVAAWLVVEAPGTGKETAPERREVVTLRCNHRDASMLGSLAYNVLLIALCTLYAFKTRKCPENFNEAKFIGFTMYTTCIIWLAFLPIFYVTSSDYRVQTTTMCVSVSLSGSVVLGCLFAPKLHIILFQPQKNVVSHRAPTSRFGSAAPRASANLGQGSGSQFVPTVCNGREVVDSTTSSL

[2] = biological target: T1, Metabotropic glutamate receptor 2; experiment: Antagonist activity at recombinant rat mGluR2 expressed in forskolin-stimulated CHO cells assessed as inhibition of (1S,3R)-ACPD induced cAMP production; type: functional, cell-based
[3] = biological target: Metabotropic glutamate receptor 2 (Homo sapiens, UniProt Q14416); experiment: Antagonist activity at human mGluR2 receptor expressed in CHO cells assessed as inhibition of GIRK current; type: functional, cell-based
Sequence of Metabotropic glutamate receptor 2 (Homo sapiens, UniProt Q14416) (Q14416 whole entry): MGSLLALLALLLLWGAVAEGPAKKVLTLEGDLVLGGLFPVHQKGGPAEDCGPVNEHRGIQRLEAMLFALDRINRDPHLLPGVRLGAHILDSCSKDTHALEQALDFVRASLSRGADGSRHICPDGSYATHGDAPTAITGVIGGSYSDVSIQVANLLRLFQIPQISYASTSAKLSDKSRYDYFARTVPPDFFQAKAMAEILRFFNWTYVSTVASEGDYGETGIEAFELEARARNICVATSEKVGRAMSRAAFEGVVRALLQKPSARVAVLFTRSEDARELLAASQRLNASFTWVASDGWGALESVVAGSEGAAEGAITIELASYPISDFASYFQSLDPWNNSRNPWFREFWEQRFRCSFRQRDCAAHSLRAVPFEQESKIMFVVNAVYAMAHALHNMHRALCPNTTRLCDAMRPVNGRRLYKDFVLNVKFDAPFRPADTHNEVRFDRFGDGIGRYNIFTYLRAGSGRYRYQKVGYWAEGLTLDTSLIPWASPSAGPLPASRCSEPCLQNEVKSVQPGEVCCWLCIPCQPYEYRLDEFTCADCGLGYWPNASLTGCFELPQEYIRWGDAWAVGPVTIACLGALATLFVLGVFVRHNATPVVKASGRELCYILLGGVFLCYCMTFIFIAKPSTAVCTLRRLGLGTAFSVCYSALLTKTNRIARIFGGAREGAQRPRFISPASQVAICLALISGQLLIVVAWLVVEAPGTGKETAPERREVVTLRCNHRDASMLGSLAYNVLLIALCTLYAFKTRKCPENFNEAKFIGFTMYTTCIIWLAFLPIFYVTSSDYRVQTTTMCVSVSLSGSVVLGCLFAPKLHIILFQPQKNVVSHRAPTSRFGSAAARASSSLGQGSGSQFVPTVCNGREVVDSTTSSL

[4] = biological target: Metabotropic glutamate receptor 3 (Rattus norvegicus, UniProt P31422); experiment: Antagonist activity at rat mGluR3 receptor expressed in CHO cells assessed as inhibition of GIRK current; type: functional, cell-based
Sequence of Metabotropic glutamate receptor 3 (P31422 whole entry): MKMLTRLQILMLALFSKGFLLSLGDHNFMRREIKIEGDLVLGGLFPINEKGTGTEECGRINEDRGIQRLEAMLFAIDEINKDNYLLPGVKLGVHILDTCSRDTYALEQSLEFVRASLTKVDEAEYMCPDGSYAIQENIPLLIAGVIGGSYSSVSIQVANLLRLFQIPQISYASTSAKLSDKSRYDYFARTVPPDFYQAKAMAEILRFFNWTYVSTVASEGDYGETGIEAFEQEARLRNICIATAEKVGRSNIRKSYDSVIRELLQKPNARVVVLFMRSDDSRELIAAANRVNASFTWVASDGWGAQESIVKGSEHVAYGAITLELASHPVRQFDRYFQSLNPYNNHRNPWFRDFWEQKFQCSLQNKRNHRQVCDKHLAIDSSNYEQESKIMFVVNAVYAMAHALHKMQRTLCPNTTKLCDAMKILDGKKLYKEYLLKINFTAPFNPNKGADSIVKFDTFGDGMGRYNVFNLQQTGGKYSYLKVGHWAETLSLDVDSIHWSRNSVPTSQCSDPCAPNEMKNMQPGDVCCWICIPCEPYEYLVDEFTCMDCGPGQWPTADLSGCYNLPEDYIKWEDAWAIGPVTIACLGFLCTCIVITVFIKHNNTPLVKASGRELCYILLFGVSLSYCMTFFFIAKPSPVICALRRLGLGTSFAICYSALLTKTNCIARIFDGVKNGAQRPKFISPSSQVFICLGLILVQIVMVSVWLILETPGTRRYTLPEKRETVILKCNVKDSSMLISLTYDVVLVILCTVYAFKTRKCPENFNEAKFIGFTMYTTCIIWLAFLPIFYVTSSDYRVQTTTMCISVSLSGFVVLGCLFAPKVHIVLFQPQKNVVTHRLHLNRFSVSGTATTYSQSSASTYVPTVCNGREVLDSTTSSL

[5] = biological target: T1, Metabotropic glutamate receptor 2; experiment: Antagonist activity at rat mGluR2 receptor expressed in CHO cells assessed as inhibition of GIRK current; type: functional, cell-based
Rattus norvegicus [6] = experiment: Agonist activity at rat mGluR3 assessed as decrease in spontaneous locomotor activity at 10 mg/kg, sc after 30 mins; type: functional, organism-based; design: dose 10 mg/kg
Rattus norvegicus [7] = experiment: Neurotoxicity in rat assessed as locomotor activity upto 30 mg/kg, po by rotarod test; type: toxicity, organism-based; design: dose 30 mg/kg, route oral; conditions: in vivo
Rattus norvegicus [8] = experiment: Neurotoxicity in rat assessed as effect on spontaneous locomotor activity upto 30 mg/kg, po; type: toxicity, organism-based; design: dose 30 mg/kg, route oral; conditions: in vivo
[9] = Oral bioavailability in rat at 10 mg/kg, po; type: ADME, organism-based; conditions: in vivo
Rattus norvegicus [10] = experiment: Agonist activity at rat mGluR2 assessed as decrease in spontaneous locomotor activity at 10 mg/kg, sc after 30 mins; type: functional, organism-based; design: dose 10 mg/kg
Rattus norvegicus [11] = species: Rattus norvegicus; experiment: Antiamnesic activity in rat assessed as inhibition of LY354740-induced impairment of working memory by DMTP test; type: functional, organism-based
Rattus norvegicus [12] = species: Rattus norvegicus; experiment: Amnesic activity in rat assessed as missed trials by DMTP test; type: functional, organism-based
Rattus norvegicus [13] = experiment: Neurotoxicity in rat assessed as antidepressant-like activity at 1 mg/kg after 35 to 180 mins, po; type: toxicity, organism-based; design: dose 1 mg/kg, route oral; conditions: in vivo
[14] = Ratio of drug level in brain to plasma in rat; type: ADME; conditions: brain and plasma
Cytochrome P450 3A4 = Cytochrome P450 3A4 (Homo sapiens, UniProt P08684); experiment: Inhibition of CYP3A4; type: ADME
Sequence of Cytochrome P450 3A4 (P08684 whole entry): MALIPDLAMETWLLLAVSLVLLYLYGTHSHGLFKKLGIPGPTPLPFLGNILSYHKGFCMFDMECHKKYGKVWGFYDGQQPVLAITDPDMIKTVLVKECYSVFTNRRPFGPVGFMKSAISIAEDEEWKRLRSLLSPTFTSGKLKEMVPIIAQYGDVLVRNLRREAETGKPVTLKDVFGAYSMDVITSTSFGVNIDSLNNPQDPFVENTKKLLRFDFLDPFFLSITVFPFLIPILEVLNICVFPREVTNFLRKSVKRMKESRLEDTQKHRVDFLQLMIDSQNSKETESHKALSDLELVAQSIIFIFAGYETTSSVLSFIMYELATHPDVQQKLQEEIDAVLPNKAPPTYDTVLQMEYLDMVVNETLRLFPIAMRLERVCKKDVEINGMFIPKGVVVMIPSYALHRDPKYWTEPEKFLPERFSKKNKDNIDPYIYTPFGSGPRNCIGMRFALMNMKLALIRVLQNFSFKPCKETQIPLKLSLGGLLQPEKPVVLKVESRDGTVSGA

Rattus norvegicus [15] = experiment: Antagonist activity at rat mGluR3 assessed as inhibition of LY354740-induced hypoactivity at 10 mg/kg, po; type: functional, organism-based; design: dose 10 mg/kg
Rattus norvegicus [16] = experiment: Neurotoxicity in rat assessed as effect on grip strength upto 30 mg/kg, po; type: toxicity, organism-based; design: dose 30 mg/kg, route oral; conditions: in vivo
Rhesus monkey = experiment: Induction of working memory impairment in Rhesus monkey by DMTP test; type: functional, organism-based; conditions: Macaca mulatta
[17] = Half life in rat at 2.5 mg/kg, iv; type: ADME, organism-based; design: dose 2.5 mg/kg, route intravenous; conditions: in vivo
Rattus norvegicus [18] = experiment: Antiamnesic activity in rat assessed as partial inhibition of LY354740-induced impairment of working memory at 3 mg/kg, po by DMTP test; type: functional, organism-based; design: dose 3 mg/kg
Rattus norvegicus [19] = experiment: Antiamnesic activity in rat assessed as partial inhibition of LY354740-induced impairment of working memory at 10 mg/kg, po by DMTP test; type: functional, organism-based; design: dose 10 mg/kg
Rattus norvegicus [20] = experiment: Antiamnesic activity in rat assessed as partial reversal of scopolamine-induced impairment of working memory at 0.06 mg/kg, sc by DMTP test; type: functional, organism-based; design: dose 0.06 mg/kg
Rattus norvegicus [21] = experiment: Antagonist activity at rat mGluR2 assessed as inhibition of LY354740-induced hypoactivity at 10 mg/kg, po; type: functional, organism-based; design: dose 10 mg/kg
Liver microsomes = experiment: Clearance in rat liver microsomes; type: ADME, Microsome
Rattus norvegicus [22] = species: Rattus norvegicus; experiment: Amnesic activity in rat assessed as latency to response by DMTP test; type: functional, organism-based
Rattus norvegicus [23] = species: Rattus norvegicus; experiment: Induction of working memory impairment in rat by DMTP test; type: functional, organism-based
Rattus norvegicus [24] = experiment: Antiamnesic activity in rat assessed as partial reversal of scopolamine-induced impairment of working memory at 3 mg/kg, po by DMTP test; type: functional, organism-based; design: dose 3 mg/kg
[25] = Volume of dustribution at steady state in rat at 2.5 mg/kg, iv; type: ADME, organism-based; design: dose 2.5 mg/kg, route intravenous; conditions: in vivo, read-out: Vdss
Homo sapiens = species: Homo sapiens; experiment: Induction of cognitive impairment in human; type: functional, organism-based
[26] = Thermodynamic solubility of the compound at pH 3; type: physicochemical; conditions: buffer
[27] = Clearance in rat at 2.5 mg/kg, iv; type: ADME, organism-based; design: dose 2.5 mg/kg, route intravenous; conditions: in vivo

COc1ccc(-c2cccc(C3=Nc4cc(C)c(C(F)(F)F)cc4NC(=O)C3)c2)cn1
pIC50 [1]: 8.30 | pIC50 [2]: 8.00

Cc1cc(-c2cccc(C3=Nc4cc(C(F)(F)F)c(C(F)(F)F)cc4NC(=O)C3)c2)cc(C)n1
pIC50 [1]: 8.15 | pIC50 [2]: 8.15

Cc1cc(-c2cccc(C3=Nc4cc(C)c(C(F)(F)F)cc4NC(=O)C3)c2)on1
pIC50 [1]: 8.30 | pIC50 [2]: 8.05

Cc1cc2c(cc1C(F)(F)F)NC(=O)CC(c1cccc(-c3ccnc(C#N)c3)c1)=N2
pIC50 [1]: 7.92 | pIC50 [2]: 7.74

Cn1nccc1-c1cccc(C2=Nc3ccc(C(F)(F)F)cc3NC(=O)C2)c1
pIC50 [1]: 7.41 | pIC50 [2]: 6.72

CCOc1cc2c(cc1C(F)(F)F)NC(=O)CC(c1cccc(-c3ccnc(C)c3)c1)=N2
pIC50 [1]: 8.22 | pIC50 [3]: 7.82 | pIC50 [2]: 8.10 | pIC50 [4]: 8.52

O=C1CC(c2cccc(-c3ccncc3)c2)=Nc2ccc(Cl)cc2N1
pIC50 [1]: 8.10 | pIC50 [3]: 8.00 | pIC50 [2]: 8.52

Cc1cc2c(cc1C(F)(F)F)NC(=O)CC(c1cccc(-c3ccnc(-n4cccc4)c3)c1)=N2
pIC50 [1]: 7.23

Cc1cc2c(cc1C(F)(F)F)NC(=O)CC(c1cccc(-c3ccnc(C(C)C)c3)c1)=N2
pIC50 [1]: 8.40 | pIC50 [2]: 8.00

Cc1cc2c(cc1C(F)(F)F)NC(=O)CC(c1cccc(-c3ccnc(C4CC4)c3)c1)=N2
pIC50 [1]: 8.00 | pIC50 [2]: 8.22

Cc1ccc(-c2cccc(C3=Nc4cc(C)c(C(F)(F)F)cc4NC(=O)C3)c2)cn1
pIC50 [1]: 7.89 | pIC50 [2]: 8.30

Cc1cc2c(cc1C(F)(F)F)NC(=O)CC(c1cccc(-c3ccncn3)c1)=N2
pIC50 [1]: 8.22 | pIC50 [2]: 7.30

Cc1cc2c(cc1C(F)(F)F)NC(=O)CC(c1cccc(-c3cnccn3)c1)=N2
pIC50 [1]: 7.70 | pIC50 [2]: 7.80

O=C1CC(c2cccc(-n3ccnn3)c2)=Nc2ccc(-c3ccccc3F)cc2N1
pIC50 [1]: 7.92 | pIC50 [5]: 7.96 | pIC50 [2]: 7.57 | pIC50 [4]: 7.48

Cc1ccc2c(c1)NC(=O)CC(c1ccccc1)=N2
pIC50 [1]: 5.19

Cc1cc2c(cc1C(F)(F)F)NC(=O)CC(c1cccc(-c3cccnn3)c1)=N2
pIC50 [1]: 6.89

Cc1cc(-c2cccc(C3=Nc4cc(C)c(C(F)(F)F)cc4NC(=O)C3)c2)cc(C)n1
Activity (Rattus norvegicus [6]): Dose-dependent effect | Activity (Rattus norvegicus [7]): Non-toxic | Activity (Rattus norvegicus [8]): Non-toxic | bioavailability [9]: 52% | Activity (Rattus norvegicus [10]): Dose-dependent effect | Activity (Rattus norvegicus [11]): Active | pIC50 [1]: 8.70 | Activity (Rattus norvegicus [12]): Dose-dependent effect | pIC50 [5]: > 8.00 | Activity (Rattus norvegicus [13]): Toxic | Kp [14]: 1.4 | pIC50 (Cytochrome P450 3A4): 5.32 | Activity (Rattus norvegicus [15]): Active | Activity (Rattus norvegicus [16]): Non-toxic | pIC50 [3]: 7.85 | Activity (Rhesus monkey): Active | half-life [17]: 12.8 h | Activity (Rattus norvegicus [18]): Dose-dependent effect | Activity (Rattus norvegicus [19]): Active | Activity (Rattus norvegicus [20]): Active | Activity (Rattus norvegicus [21]): Active | CL (Liver microsomes): 4.7 mL/min/kg | Activity (Rattus norvegicus [22]): Dose-dependent effect | Activity (Rattus norvegicus [23]): Dose-dependent effect | Activity (Rattus norvegicus [24]): Active | Vd [25]: 5.8 L/kg | Activity (Homo sapiens): Active | solubility thermodynamic [26]: 64 µg/mL (≈ 151 µM) | pIC50 [2]: 8.52 | clearance [27]: 5.7 mL/min/kg | pIC50 [4]: > 8.00

Cc1cc(-c2cccc(C3=Nc4cc(C)c(C(F)(F)F)cc4NC(=O)C3)c2)cc(CO)n1
pIC50 [1]: 7.85 | pIC50 [2]: 7.82

Cc1cc2c(cc1C(F)(F)F)NC(=O)CC(c1cccc(-c3ccnc(C(C)(C)O)c3)c1)=N2
pIC50 [1]: 7.40 | pIC50 [2]: 7.85

COc1cc(-c2cccc(C3=Nc4cc(C)c(C(F)(F)F)cc4NC(=O)C3)c2)ccn1
pIC50 [1]: 7.89 | pIC50 [2]: 7.80

Cc1nc(-c2cccc(C3=Nc4ccc(C(F)(F)F)cc4NC(=O)C3)c2)co1
pIC50 [1]: 6.46

Cc1cc2c(cc1C(F)(F)F)NC(=O)CC(c1cccc(-c3ccc(C4CC4)nc3)c1)=N2
pIC50 [1]: 8.22 | pIC50 [2]: 7.70

Cc1cc2c(cc1C(F)(F)F)NC(=O)CC(c1cccc(-c3ccnc(CO)c3)c1)=N2
pIC50 [1]: 7.89 | pIC50 [2]: 7.74

O=C1CC(c2cccc(-c3ccncc3)c2)=Nc2ccc(C(F)(F)F)cc2N1
pIC50 [1]: 8.00 | pIC50 [5]: 7.00 | pIC50 [3]: 7.28 | pIC50 [2]: 7.59 | pIC50 [4]: 7.54

Cc1cc2c(cc1C(F)(F)F)NC(=O)CC(c1cccc(-n3cncn3)c1)=N2
pIC50 [1]: 8.10 | pIC50 [2]: 7.12

COCc1cc(-c2cccc(C3=Nc4cc(C)c(C(F)(F)F)cc4NC(=O)C3)c2)cc(C)n1
pIC50 [1]: 8.10 | pIC50 [2]: 8.30
